Measured values reported in patent US8946446B2, “Pyrrolo sulfonamide compounds for modulation of orphan nuclear receptor RAR-related orphan receptor-γ (ROR-γ, NR1F3) activity and for the treatment of chronic inflammatory and autoimmune diseases” (Phenex Pharmaceuticals AG, priority 2011, dated 2015).

The molecules below were run against T1, RORγ ligand binding domain (LBD) (Homo sapiens, UniProt P51449) (assay: TR-FRET Activity Assay (ligand sensing, RORγ-LBD / coactivator peptide interaction)). Details: not given.
T1 construct: made in house; host or cells: E. coli BL-21 (BL3), vector pDEST15
T1 sequence (P51449 269-508 limits assumed): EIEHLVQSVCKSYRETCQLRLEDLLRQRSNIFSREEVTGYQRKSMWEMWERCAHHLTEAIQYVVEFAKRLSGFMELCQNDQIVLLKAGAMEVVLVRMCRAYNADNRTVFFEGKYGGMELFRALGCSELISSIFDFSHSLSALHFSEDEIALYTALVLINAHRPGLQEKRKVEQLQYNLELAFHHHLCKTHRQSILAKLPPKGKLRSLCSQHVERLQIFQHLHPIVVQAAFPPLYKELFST
Type: biochemical
Source text: This method measures the ability of putative ligands to modulate the interaction between the purified bacterial expressed RORγ ligand binding domain (LBD) and synthetic N-terminally biotinylated peptides which are derived from nuclear receptor coactivator proteins such as but not limited to SRC1 (NcoA1), SRC2 (NcoA2, TIF2), SRC3 (NcoA3), PGC1α, PGC1β, CBP, GRIP1, TRAP220, RIP140.
The ligand-binding domain (LBD) of RORγ was expressed as fusion protein with GST in […] cells using the vector pDEST15. Cells were lysed by lysozyme-treatment and sonication, and the fusion proteins purified over glutathione sepharose (Pharmacia) according to the manufacturers instructions. For screening of compounds for their influence on the RORγ-peptide interaction, the LANCE technology (Perkin Elmer) was applied. This method relies on the binding dependent energy transfer from a donor to an acceptor fluorophor attached to the binding partner of interest. For ease of handling and reduction of background from compound fluorescence LANCE technology makes use of generic fluorophore labels and time resolved detection assays were done in a final volume of 25 μL in a 384 well plate, in a Tris-based buffer system (20 mM Tris-HCl pH6.8; 60 mM KCl, 1 mM DTT; 5 mM MgCl2; 35 ng/μL BSA), containing 20-60 ng/well recombinantly expressed RORγ-LBD fused to GST, 200-600 nM N-terminally biotinylated peptide, 200 ng/well Streptavidin-xIAPC conjugate (Prozyme) and 6-10 ng/well Eu W1024-antiGST (Perkin Elmer). DMSO content of the samples was kept at 1%.
After generation of the Tris-based buffer system, the potentially RORγ modulating ligands were diluted. […] The LANCE signal was detected by a Perkin Elmer EnVision™ Multilabel Counter. The results were visualized by plotting the ratio between the emitted light at 665 nm and 615 nm. […] Ligands that promote the complex formation induce a concentration-dependent increase in time-resolved fluorescent signal.
The normalised TR-FRET assay values, using the following equation: 1000*665 nm measurement value/615 nm measurement value, were transferred to the program GraphPad Prism to generate graphs and dose response curves using the following equation:
Equation: Sigmoidal Dose-Response (Variable Slope) Y=Bottom+(Top-Bottom)/(1+10^((LogEC50−X)*HillSlope)) X is the logarithm of the concentration. Y is the response. Y starts at Bottom and goes to Top with a sigmoidal shape.
This is identical to the “four parameter logistic equation”. The IC50 values are calculated using this equation.

Row | Structure (SMILES) | IC50 [nM]
1 | Cc1c(S(N)(=O)=O)cc(-c2cc(C(C)(C)C)cc(C(C)(C)C)c2)n1CC1CCCCO1 (stereo not shown) [1/21] | 500 to 2000
2 | Cc1c(S(N)(=O)=O)cc(-c2cn(S(=O)(=O)NC(C)(C)C)c3ccccc23)n1CC1CCCCC1 [1/32] | > 2000
3 | Cc1c(S(=O)(=O)NCC(C)(C)O)cc(-c2cc(C(C)(C)C)cc(C(C)(C)C)c2)n1CC1CCCCC1 [2/5] | < 500
4 | Cc1c(S(N)(=O)=O)cc(-c2cc3c(c(C(C)(C)C)c2)OCC(=O)N3C(C)C)n1CC1CCCCC1 [12/10] | 500 to 2000
5 | Cc1c(S(N)(=O)=O)cc(-c2cc(C(C)(C)C)c(OCCO)c(C(C)(C)C)c2)n1CC1CCCCC1 [16/8] | 500 to 2000
6 | Cc1c(S(N)(=O)=O)cc(-c2cc(C(C)(C)C)c(OCC(=O)O)c(C(C)(C)C)c2)n1CC1CCCCC1 [16/9] | > 2000

Same assay, conditions: read-out: RORγ activity in the TR-FRET Activity Assay (IC50 FRET), Group

Row | Structure (SMILES) | IC50 [nM]
7 | Cc1c(S(N)(=O)=O)cc(-c2cccc(N3CCCC3)c2)n1CC1CCCCC1 [1/14] | > 2000
8 | Cc1c(S(N)(=O)=O)cc(-c2cc(C(F)(F)F)c3ncccc3c2)n1CC1CCCCC1 [1/16] | > 2000
9 | Cc1c(S(N)(=O)=O)cc(-c2cccc(S(=O)(=O)N(C)C(C)(C)C)c2)n1CC1CCCCC1 [1/17] | > 2000
10 | Cc1c(S(N)(=O)=O)cc(-c2cn(S(=O)(=O)c3ccccc3)c3ccccc23)n1CC1CCCCC1 [1/19] | 500 to 2000
11 | Cc1c(S(N)(=O)=O)cc(-c2cc(C(C)(C)C)cc(C(C)(C)C)c2)n1CC1CCOCC1 [1/20] | > 2000
12 | Cc1c(S(N)(=O)=O)cc(-c2cc(C(C)(C)C)cc(C(C)(C)C)c2)n1CCC1CCCC1 [1/22] | < 500
13 | Cc1c(S(N)(=O)=O)cc(-c2cc(C(C)(C)C)nc(C(F)(F)F)c2)n1CC1CCCCC1 [1/23] | 500 to 2000
14 | Cc1c(S(N)(=O)=O)cc(-c2ccc(S(=O)(=O)N3CCC3(C)C)c(C(C)(C)C)c2)n1CC1CCCCC1 [1/24] | < 500
15 | Cc1c(S(N)(=O)=O)cc(-c2ccc(S(=O)(=O)N3CCCCC3)c(C(C)(C)C)c2)n1CC1CCCCC1 [1/25] | < 500
16 | Cc1c(S(N)(=O)=O)cc(-c2ccc(S(=O)(=O)N3CCC(C)CC3)c(C(C)(C)C)c2)n1CC1CCCCC1 [1/26] | 500 to 2000
17 | Cc1c(S(N)(=O)=O)cc(-c2ccc(S(=O)(=O)N3CCCC(C)C3)c(C(C)(C)C)c2)n1CC1CCCCC1 (stereo not shown) [1/27] | < 500
18 | Cc1c(S(N)(=O)=O)cc(-c2cn(S(=O)(=O)N(C)C(C)(C)C)c3ccccc23)n1CC1CCCCC1 [1/31] | < 500
19 | Cc1c(S(N)(=O)=O)cc(-c2cn(S(=O)(=O)N3CCCCC3)c3ccccc23)n1CC1CCCCC1 [1/33] | 500 to 2000
20 | Cc1c(S(N)(=O)=O)cc(-c2cn(S(=O)(=O)NC3CCCCC3)c3ccccc23)n1CC1CCCCC1 [1/34] | 500 to 2000
21 | Cc1ccc2c(-c3cc(S(N)(=O)=O)c(C)n3CC3CCCCC3)cn(S(=O)(=O)N3CCCCC3)c2c1 [1/35] | < 500
22 | Cc1c(S(N)(=O)=O)cc(-c2c(C)n(S(=O)(=O)N3CCCCC3)c3ccccc23)n1CC1CCCCC1 [1/36] | > 2000
23 | Cc1c(S(N)(=O)=O)cc(-c2cc(C(C)(C)C)cc(C(C)(C)C)c2)n1CC1CCCCCC1 [1/37] | < 500
24 | Cc1c(S(N)(=O)=O)cc(-c2cc(C(C)(C)C)cc(C(C)(C)C)c2)n1CC1CCCC1 [1/38] | 500 to 2000
25 | Cc1c(S(N)(=O)=O)cc(-c2cc(C(C)(C)C)cc(C(C)(C)C)c2)n1CC1CCC1 [1/39] | 500 to 2000
26 | Cc1c(S(=O)(=O)NCCO)cc(-c2cc(C(C)(C)C)cc(C(C)(C)C)c2)n1CC1CCCCC1 [2/2] | < 500
27 | Cc1c(S(=O)(=O)NC2CCC2)cc(-c2cc(C(C)(C)C)cc(C(C)(C)C)c2)n1CC1CCCCC1 [2/3] | 500 to 2000
28 | Cc1c(S(=O)(=O)NC2CCCC2)cc(-c2cc(C(C)(C)C)cc(C(C)(C)C)c2)n1CC1CCCCC1 [2/4] | 500 to 2000
29 | Cc1c(S(=O)(=O)NCCN2CCOCC2)cc(-c2cc(C(C)(C)C)cc(C(C)(C)C)c2)n1CC1CCCCC1 [2/6] | < 500
30 | Cc1c(S(=O)(=O)NCc2nc(C(=O)O)co2)cc(-c2cc(C(C)(C)C)cc(C(C)(C)C)c2)n1CC1CCCCC1 [5/5] | 500 to 2000
31 | Cc1c(S(=O)(=O)NCC2COCCN2C)cc(-c2cc(C(C)(C)C)cc(C(C)(C)C)c2)n1CC1CCCCC1 (stereo not shown) [5/11] | 500 to 2000
32 | Cc1c(S(=O)(=O)NCC(C)(C)C(=O)O)cc(-c2cc(C(C)(C)C)cc(C3(C)CC3)c2)n1CC1CCCCC1 [11/1] | > 2000
33 | Cc1c(S(N)(=O)=O)c(C)n(CC2CCCCC2)c1-c1cc(C(C)(C)C)cc(C(C)(C)C)c1 [12/8] | 500 to 2000
34 | Cc1c(S(N)(=O)=O)cc(-c2cc3c(c(C(C)(C)C)c2)OCC(=O)N3C)n1CC1CCCCC1 [12/9] | > 2000

Row | Structure (SMILES) | IC50 [nM]
35 | Cc1c(S(N)(=O)=O)cc(-c2cc(OCC(F)(F)F)nc(C(C)(C)C)c2)n1CC1CCCCC1 [12/12] | < 500
36 | Cc1c(S(N)(=O)=O)cc(-c2cc(C(C)C)c3c(c2)C(C)(C)NS3(=O)=O)n1CC1CCCCC1 [12/17] | > 2000
37 | Cc1c(S(N)(=O)=O)cc(-c2ccc3c(c2)C(C)(C)CN(C(C)C)S3(=O)=O)n1CC1CCCCC1 [12/18] | > 2000
38 | Cc1c(S(N)(=O)=O)cc(-c2cc(C(C)(C)C)cc(C(C)(C)CF)c2)n1CC1CCCCC1 [12/26] | > 2000
39 | CC(=O)c1cc(-c2cc(S(N)(=O)=O)c(C)n2CC2CCCCC2)cc(C(C)(C)C)c1 [12/27] | > 2000
40 | Cc1c(S(N)(=O)=O)cc(-c2cc3c(c(C(C)(C)C)c2)OCCC3=O)n1CC1CCCCC1 [12/28] | 500 to 2000
41 | Cc1c(S(N)(=O)=O)cc(-c2ccc(S(=O)(=O)NC(C)(C)C)c(C(F)F)c2)n1CC1CCCCC1 [12/29] | < 500
42 | Cc1c(S(N)(=O)=O)cc(-c2ccc(S(=O)(=O)NC(C)(C)CCO)c(C(F)(F)F)c2)n1CC1CCCCC1 [12/31] | 500 to 2000
43 | COCC(C)(C)NS(=O)(=O)c1ccc(-c2cc(S(N)(=O)=O)c(C)n2CC2CCCCC2)cc1C(F)(F)F [12/32] | 500 to 2000
44 | Cc1c(S(N)(=O)=O)cc(-c2cc(C(C)(C)C)cc(C3(C)CC3)c2)n1CC1CCCCC1 [12/33] | < 500
45 | Cc1c(S(N)(=O)=O)cc(-c2ccc(N3CCOCC3)c(C(C)(C)C)c2)n1CC1CCCCC1 [12/34] | 500 to 2000
46 | Cc1c(S(N)(=O)=O)cc(-c2ccc(N3CCOCC3=O)c(C(C)(C)C)c2)n1CC1CCCCC1 [12/35] | > 2000
47 | Cc1c(S(N)(=O)=O)cc(-c2cc(C(C)(C)C)c(F)c(C(C)(C)C)c2)n1CC1CCCCC1 [12/39] | < 500
48 | Cc1c(S(N)(=O)=O)cc(-c2cc(C3(C)CC3)cc(C3(C)CC3)c2)n1CC1CCCCC1 [12/40] | < 500
49 | Cc1c(S(N)(=O)=O)cc(-c2cc(C(F)(F)F)c3c(c2)C2(CCO3)CC2)n1CC1CCCCC1 [12/41] | 500 to 2000
50 | Cc1c(S(N)(=O)=O)cc(-c2cc3c(c(C(C)(C)C)c2)OCCC3O)n1CC1CCCCC1 (stereo not shown) [12/45] | > 2000
51 | Cc1c(S(N)(=O)=O)cc(-c2cc(C(=O)NC(C)(C)C)cc(C(F)(F)F)c2)n1CC1CCCCC1 [13/13] | 500 to 2000
52 | Cc1c(S(N)(=O)=O)cc(-c2cc(C(=O)N(C)C(C)(C)C)cc(C(F)(F)F)c2)n1CC1CCCCC1 [13/14] | > 2000
53 | COc1cc(-c2cc(S(N)(=O)=O)c(C)n2CC2CCCCC2)cc(C(C)(C)C)c1 [16/1] | > 2000
54 | Cc1c(S(N)(=O)=O)cc(-c2cc(OC(C)C)cc(C(C)(C)C)c2)n1CC1CCCCC1 [16/2] | 500 to 2000
55 | Cc1c(S(N)(=O)=O)cc(-c2cc(OCC3CC3)cc(C(C)(C)C)c2)n1CC1CCCCC1 [16/3] | 500 to 2000
56 | CNC(=O)COc1c(C(C)(C)C)cc(-c2cc(S(N)(=O)=O)c(C)n2CC2CCCCC2)cc1C(C)(C)C [16/10] | > 2000
57 | COCCOc1c(C(C)(C)C)cc(-c2cc(S(N)(=O)=O)c(C)n2CC2CCCCC2)cc1C(C)(C)C [16/11] | 500 to 2000
58 | COc1cc(-c2cc(S(N)(=O)=O)c(C)n2CC2CCCCC2)cc(C(C)(C)C)n1 [17/1] | > 2000
59 | CCOc1cc(-c2cc(S(N)(=O)=O)c(C)n2CC2CCCCC2)cc(C(C)(C)C)n1 [17/2] | 500 to 2000
60 | Cc1c(S(N)(=O)=O)cc(-c2cc(OCCCN3CCOCC3)nc(C(C)(C)C)c2)n1CC1CCCCC1 [17/3] | > 2000
61 | COCCOc1cc(-c2cc(S(N)(=O)=O)c(C)n2CC2CCCCC2)cc(C(C)(C)C)n1 [17/4] | 500 to 2000
